Reference: US20250066289A1, “BIGUANIDE DERIVATIVE OF IBUPROFEN AND PROCESS OF PREPARATION THEREOF” (BVDU's Poona College of Pharmacy, priority 2023, published 2025)

Assays:
[1] = tested on: STZ induced diabetic rats; experiment: STZ induced diabetic study, fasting blood glucose; assay type: in vivo, Male Wistar rats; details: for Fasting Blood Glucose (FBG): Mean ± SD, n=4
Description: (§1) Male Wistar rats weighing between 200 and 250 g were used for the studies. The animals were kept in animal cages with free access to standard pellet food and water at a temperature of 23±2° C., a 12-hour cycle of darkness and light, and a relative humidity of roughly 45 to 65%. The Institutional Animal Ethics Committee (IAEC) authorized the protocol, and the animal experiments were carried out in accordance with it as well as the Indian regulations established by the Committee for the Purpose of Control and Supervision of Experimental Animals (CPCSEA), New Delhi.
An intraperitoneal injection of streptozotocin (STZ, 55 mg/kg of body weight) was used to cause diabetes. STZ was dissolved in 0.1 mol/L citrate buffer, pH 4.5, and injected into the peritoneal cavity. The fasting blood glucose concentration (FBG) was used for diagnosis of diabetes. Animals having blood glucose level greater than 16.7 mmol/L after 24 hours were deemed diabetic. These animals were further selected for the study.
The animals (n=4) were divided into four groups. • Group 1: treated with vehicle (distilled water) vehicle control; • Group 2: treated with vehicle (drinking water and STZ) diabetic control; • Group 3: treated with metformin (10 mg/kg body weight/day in drinking water) diabetic test; and • Group 4: treated with Biguanide of Ibuprofen (10 mg/kg body weight/day in drinking water) diabetic test.
The treatment with metformin and Biguanide of Ibuprofen was given for 14 days. And at the end of treatment fasting blood glucose estimation was performed.

CAR-induced paw edema = CAR-induced paw edema anti-inflammatory study; assay type: in vivo, Male Wistar rats; details: for water volume displacement digital plethysmometer (paw volume): 5 mg/kg i.p., Mean ± SD, n=4
Description: as §1
In the second experiment, the anti-inflammatory effect of Biguanide of Ibuprofen in comparison Ibuprofen was assessed by CAR-induced paw edema. The experimental groups were designed as follows (n=4 per group): • Group 1. Control group: 100 μl saline (i.d.)+saline (i.p.), • Group 2. CAR group: 100 μl CAR (i.d.)+saline (i.p.), • Group 3. Ibuprofen 5 mg/kg group: 100 μl CAR (i.d.)+5 mg/kg Ibuprofen (i.p.), • Group 4. Biguanide of Ibuprofen 5 mg/kg group: 100 μl CAR (i.d.)+5 mg/kg Biguanide of Ibuprofen (i.p.),
Carrageenan (100 μl) was injected by i.d. route per rat into the right hind paw. The rats were injected with i.p. Ibuprofen (5 mg/kg), and Biguanide of Ibuprofen (5 mg/kg) immediately after CAR injection. Saline was given to the control group. The paw volume was measured plethysmographically at 0 min, 30 min, 60 min, 90 min, 120 min, 180 min and 240 min. The 0th min reading was considered as the initial paw size of the rats. The change in the paw volume in the test groups was compared with the untreated control groups. The reduction in paw volume (mL) with the help of water plethysmometer was recorded.

[2] = Day 7, 10 mg/kg body weight/day in drinking water
[3] = Day 14, 10 mg/kg body weight/day in drinking water

SMILES | Fasting Blood Glucose (FBG) [1, 2] [mmol/L] | Fasting Blood Glucose (FBG) [1, 3] [mmol/L] | Effect on FBG levels in diabetic rats (in words) ([1]; 10 mg/kg/day, 14 days) | Reduction in FBG compared to metformin (in words) ([1]; both 10 mg/kg/day, 14 days) | water volume displacement digital plethysmometer (paw volume) (CAR-induced paw edema; 0 min (initial paw size)) [mL] | water volume displacement digital plethysmometer (paw volume) (CAR-induced paw edema; 30 min after CAR) [mL] | water volume displacement digital plethysmometer (paw volume) (CAR-induced paw edema; 60 min after CAR) [mL] | water volume displacement digital plethysmometer (paw volume) (CAR-induced paw edema; 90 min after CAR) [mL] | water volume displacement digital plethysmometer (paw volume) (CAR-induced paw edema; 120 min after CAR) [mL] | water volume displacement digital plethysmometer (paw volume) (CAR-induced paw edema; 180 min after CAR) [mL] | water volume displacement digital plethysmometer (paw volume) (CAR-induced paw edema; 240 min after CAR) [mL] | Paw volume compared to Ibuprofen (in words) (CAR-induced paw edema; CAR-induced paw edema, both 5 mg/kg i.p.)
CN(C)C(=N)N=C(N)N [metformin, 3-(diaminomethylidene)-1,1-dimethylguanidine, reference compound] | 22.77 ± 1.12 | 10.27 ± 1.21 | – | – | – | – | – | – | – | – | – | –
CC(C)Cc1ccc(C(C)C(=O)NNC(=N)NC(=N)N)cc1 (centres unmarked) [Biguanide of Ibuprofen, N-carbamimidoyl-2-(2-(4-isobutylphenyl)propanoyl) hydrazine-1-carboximidamide] | 22.93 ± 0.97 | 6.38 ± 0.86 | significant lowering of FBG levels | more marked reduction in FBG when compared to metformin | 0.692 ± 0.012 | 0.853 ± 0.016 | 0.940 ± 0.013 | 0.875 ± 0.021 | 0.815 ± 0.015 | 0.740 ± 0.018 | 0.710 ± 0.011 | significantly decreased paw volume, when compared to that of the Ibuprofen
